Measured values taken from patent US20110250133A1, “GASTRIN […] PEPTIDE COMPOUNDS” (priority 2003, published 2011).
Like-named read-outs stand apart in the source and are kept apart here.

Key:
[1] = tested on: PC3 tumor-bearing nude mice; format: in vivo, mouse
Experimental: In all studies, mice were administered 100 μL of ^177Lu-labeled test compound at 200 μCi/kg, i.v., with a residence time of 1 and 24 h per group (n=3-4). Tissues were analyzed in an LKB 1282 CompuGamma counter with appropriate standards.

PC3 cells = experiment: Internalization and efflux assay in PC3 cells; format: cell-based, human; conditions: 125I-BBN or Lu-177 complexes; for Internalisation (40 minutes): 40 min at 37° C.; for Efflux (2 h): 2 h at 37° C. after 40 min loading
Experimental: These studies were conducted in a 96-well plate. […] Incubations were stopped by the addition of 200 μl of ice-cold binding buffer. Plates were washed twice with binding buffer. To remove surface-bound radioligand, the cells were incubated with 0.2M acetic acid (in saline), pH 2.8 for 2 min. Plates were centrifuged and the acid wash media were collected to determine the amount of radioactivity which was not internalized. The cells were collected to determine the amount of internalized ^125I-BBN, and all samples were analyzed in the gamma counter. Data for the internalization assay was normalized by comparing counts obtained at the various time points with the counts obtained at the final time point (T=40 min).
For the efflux studies, after loading the PC3 cells with ^125I-BBN or radiolabeled compounds of the invention for 40 min at 37° C., the unbound material was filtered, and the % of internalization was determined as above. The cells were then resuspended in binding buffer at 37° C. for up to 3 h.

[2] = tested on: PC3 tumor-bearing nude mouse model; experiment: Radiotherapy efficacy studies in the PC3 tumor-bearing nude mouse model; format: in vivo; conditions: 177Lu labeled; for survival, Short Term Efficacy Study: 30 mCi/kg, up to 30 days, vs untreated and DO3A-monoamide-Aoc-QWAVGHLM-NH2 control; for survival, Long Term Efficacy Study: same dose, up to 120 days, vs controls
Experimental: Radiotherapy studies were performed using the PC3 tumor-bearing nude mouse model. […] (n=12 for each treatment group for up to 30 days, and n=36 for the pooled untreated control group for up to 31 days). […] The subjects were housed in a barrier environment for the duration of the study. Body weight and tumor size (by caliper measurement) were collected on each subject 3 times per week for the duration of the study. Criteria for early termination included: death; loss of total body weight (TBW) equal to or greater than 20%; tumor size equal to or greater than 2 cm^3.

NMB-R = target: T1, NMB-R (Rattus norvegicus, UniProt P24053); experiment: Competition with 125I-NMB for NMB-R in C6 cells (linker specificity); format: binding, rodent; conditions: for receptor subtype preference (GRP-R vs NMB-R): from IC50 with 125I-NMB (C6) and 125I-BBN (PC3), cut off 10x the IC50 of [Tyr4]-BBN;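 as to all read-outs here: test cells: rodent glioblastoma C6 line carrying NMB-R, human prostate cancer PC3 line carrying GRP-R, affinity fitted by one-site competition nonlinear regression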
T1 construct: C6, an NMB-R expressing rodent glioblastoma cell line; host or cells: C6 glioblastoma cells, intact adherent cells
T1 sequence (P24053 1-390): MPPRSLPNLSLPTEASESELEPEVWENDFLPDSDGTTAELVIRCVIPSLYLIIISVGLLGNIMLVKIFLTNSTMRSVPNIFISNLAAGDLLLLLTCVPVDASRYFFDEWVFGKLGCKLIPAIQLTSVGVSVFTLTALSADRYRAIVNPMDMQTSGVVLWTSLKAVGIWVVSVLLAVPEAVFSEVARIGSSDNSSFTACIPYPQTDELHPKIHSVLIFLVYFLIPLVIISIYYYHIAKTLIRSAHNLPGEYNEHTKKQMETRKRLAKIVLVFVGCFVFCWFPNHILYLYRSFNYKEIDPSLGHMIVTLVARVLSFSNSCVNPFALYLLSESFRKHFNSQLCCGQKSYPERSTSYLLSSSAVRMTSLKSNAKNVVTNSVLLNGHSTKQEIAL
Experimental: Two cell lines, C6, an NMB-R expressing rodent glioblastoma cell line and PC3, a GRP-R expressing human prostate cancer cell line, were used in this assay. The affinity of various unlabeled compounds for each receptor subtype (NMB-R and GRP-R) was determined indirectly by measuring its ability to compete with the binding of ^125I-NMB or ^125I-BBN to its corresponding receptors in C6 and PC3 cells.
Cells for the assays were plated at a concentration of 9.6×10^4/well in 48 well poly-lysine coated plates (Beckton Dickinson Biocoat). PC3 were obtained from ATCC(CRL-1435) and cultured in RPMI 1640 (ATCC) supplemented with 2 mM L-glutamine, 1.5 g/L Sodium bicarbonate, 10 mM HEPES and 10% FBS. […] PC3 cells for the assays were plated at a concentration of 2.0×10^4 cells/well in 96-well white/clear bottom plates (Falcon Optilux-I). Plates were used for the assays on day 2 of the post-plating.
RPMI 1640 (ATCC) containing 25 mM HEPES, 0.2% BSA fraction V, 1.0 mM AEBSF (CAS # 3087-99-7) and 0.1% Bacitracin (CAS # 1405-87-4), pH 7.4. Custom made ^125I-[Tyr^0]NMB, >2.0 Ci/μmole (Amersham Life Science) [^125I-NMB] and commercially available ^125I-[Tyr^4]BBN, >2.0 Ci/μmole (Perkin Elmer Life Science) [^125I-BBN] were used as radioligands.
Using a 48-well plate assay system (for C6 study) competition experiments were performed using ^125I-NMB. […] Selection of compounds for the assay was based on linker subtype.
The binding parameters obtained from the studies were analyzed using a one-site competition non-linear regression analysis with GraphPad Prism. The relative affinity of various compounds for NMB-R in C6 cells were compared with those obtained using commercially available [Tyr^4]-BBN and [Tyr^0]-NMB. To distinguish the GRP-R preferring compounds from NMB-R plus GRP-R preferring compounds, IC50 values obtained for each compound were compared with those obtained from [Tyr^4-BBN with ^125I-NMB on C6 cells.

GRP-R = target: T2, GRP-R (Homo sapiens, UniProt P30550); experiment: Competition studies of modified BBN analogs with 125I-BBN for GRP-R in PC3 cells (Example LXI); format: binding
T2 construct: host or cells: PC3 (PC-3) human prostate cancer cells, intact adherent cells
Experimental: PC3 cell lines were obtained from ATCC(CRL-1435) and cultured in RPMI 1640 (ATCC) supplemented with 2 mM L-glutamine, 1.5 g/L Sodium bicarbonate, 10 mM HEPES and 10% FBS. […] PC3 cells for the assays were plated at a concentration of 2.0×10^4 cells/well in a 96-well white/clear bottom plates (Falcon Optilux-I). Plates were used for the assays on day 2 of the post-plating.
^125I-BBN (Cat # NEX258) was obtained from PerkinElmer Life Sciences.
All compounds tested were dissolved in binding buffer and appropriate dilutions were also done in binding buffer. PC3 cells for assay were seeded at a concentration of 2.0×10^4/well either in 96-well black/clear collagen I cellware plates (Beckton Dickinson Biocoat). Plates were used for binding studies on day 2 post-plating. The plates were checked for confluency (>90% confluent) prior to assay. […] The studies were conducted with an assay volume of 75 μL per well. Triplicate wells were used for each data point. After the addition of the appropriate solutions, plates were incubated for 1 hour at 4° C. Incubation was ended by the addition of 200 μL of ice-cold incubation buffer. Plates were washed 5 times and blotted dry. Radioactivity was detected using either a LKB CompuGamma counter or a microplate scintillation counter.

[3] = 177Lu-labeled, 1 and 24 h, compared with control DO3A-monoamide-Aoc-QWAVGHLM-NH2
[4] = 177Lu-labeled, compared with control DO3A-monoamide-Aoc-QWAVGHLM-NH2

T2 sequence (P30550 whole entry): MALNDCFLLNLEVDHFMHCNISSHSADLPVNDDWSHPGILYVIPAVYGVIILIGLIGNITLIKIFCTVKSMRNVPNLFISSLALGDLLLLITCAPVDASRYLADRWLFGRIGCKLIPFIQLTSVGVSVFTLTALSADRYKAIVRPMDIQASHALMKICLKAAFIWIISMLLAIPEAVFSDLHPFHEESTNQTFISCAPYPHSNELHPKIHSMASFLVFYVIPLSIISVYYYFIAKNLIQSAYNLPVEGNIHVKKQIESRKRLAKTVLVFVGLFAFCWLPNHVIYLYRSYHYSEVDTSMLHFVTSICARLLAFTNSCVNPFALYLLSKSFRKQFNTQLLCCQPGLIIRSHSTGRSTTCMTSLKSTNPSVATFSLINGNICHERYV

Compound | Internalisation (40 minutes) (PC3 cells) [%] | Efflux (2 h) (PC3 cells) [%] | survival, Short Term Efficacy Study [2] | receptor subtype preference (GRP-R vs NMB-R) (NMB-R) | competition at the GRP-R (GRP-R) | other results
N-[4-[[[[[4,7,10-Tris(carboxymethyl)-1,4,7,10-tetraazacyclododec-1-yl]acetyl]amino]acetyl]amino]benzoyl]-L-glutaminyl-L-tryptophyl-L-alanyl-L-valyl-glycyl-L-histidyl-L-leucyl-L-methioninamide [Compound L70] | 70 | 12 | increased survival | dual affinity |  | uptake in the tumor ([1]; mouse, in vivo): much higher; survival, Long Term Efficacy Study [2]: significantly increased survival
CSCC[C@H](NC(=O)[C@H](CC(C)C)NC(=O)[C@H](Cc1c[nH]cn1)NC(=O)CNC(=O)[C@@H](NC(=O)[C@H](C)NC(=O)[C@H](Cc1c[nH]c2ccccc12)NC(=O)[C@H](CCC(N)=O)NC(=O)CC[C@@H](C)[C@H]1CC[C@H]2[C@@H]3[C@H](O)C[C@@H]4C[C@@H](NC(=O)CNC(=O)CN5CCN(CC(=O)O)CCN(CC(=O)O)CCN(CC(=O)O)CC5)CC[C@]4(C)[C@H]3C[C@H](O)[C@]12C)C(C)C)C(N)=O [Compound L64, N-[(3β,5β,7α,12α)-3-[[[[[4,7,10-Tris(carboxymethyl)-1,4,7,10-tetraazacyclododec-1-yl]acetyl]amino]acetyl]amino]-7,12-dihydroxy-24-oxocholan-24-yl]-L-glutaminyl-L-tryptophyl-L-alanyl-L-valyl-glycyl-L-histidyl-L-leucyl-L-methioninamide] | 69 | 20 | increased survival | dual affinity for both GRP-R and NMB-R |  | uptake in the tumor [1, 3]: much higher; uptake in the mouse pancreas [1, 4]: much higher; survival, Long Term Efficacy Study [2]: significantly increased survival
yGNLWATGHFM-NH2 |  |  |  |  | unable to compete | competition at NMB-R (NMB-R): effective NMB competitors
CSCC[C@H](NC(=O)[C@H](CC(C)C)NC(=O)[C@H](Cc1c[nH]cn1)NC(=O)CNC(=O)[C@@H](NC(=O)[C@H](C)NC(=O)[C@H](Cc1c[nH]c2ccccc12)NC(=O)[C@H](CCC(N)=O)NC(=O)CC[C@@H](C)[C@H]1CC[C@H]2[C@@H]3CC[C@@H]4C[C@@H](NC(=O)CNC(=O)CN5CCN(CC(=O)O)CCN(CC(=O)O)CCN(CC(=O)O)CC5)CC[C@]4(C)[C@H]3C[C@H](O)[C@]12C)C(C)C)C(N)=O [Compound L63, N-[(3β,5β,12α)-3-[[[[[4,7,10-Tris(carboxymethyl)-1,4,7,10-tetraazacyclododec-1-yl]acetyl]amino]acetyl]amino]-12-hydroxy-24-oxocholan-24-yl]-L-glutaminyl-L-tryptophyl-L-alanyl-L-valyl-glycyl-L-histidyl-L-leucyl-L-methioninamide] | 64 | 0 | increased survival | dual affinity for both GRP-R and NMB-R |  | uptake in the tumor [1, 3]: high tumor uptake; distribution of radioactivity in the blood, liver and kidneys [1, 4]: increased blood and liver values at early times; uptake in the mouse pancreas [1, 4]: much higher
N-[(3β,5β,12α)-3-[[[4,7,10-Tris(carboxymethyl)-1,4,7,10-tetraazacyclododec-1-yl]acetyl]amino]-glycyl-4-aminobenzoyl-L-glutaminyl-L-tryptophyl-L-alanyl-glycyl-L-histidyl-L-phenylalanyl-L-leucinamide [Compound L224] |  |  |  |  | complete loss of binding | 
GNLWATGHFM-NH2 |  |  |  |  | unable to compete | competition at NMB-R (NMB-R): effective NMB competitors; receptor preference in words (GRP-R / GRP-R and NMB-R) (NMB-R; wrapped cell: 'No selective preference' or 'preference for NMB-R'): preference for NMB-R
N-[(3β,5β,12α)-3-[[[4,7,10-Tris(carboxymethyl)-1,4,7,10-tetraazacyclododec-1-yl]acetyl]amino]-glycyl-4-aminobenzoyl-L-leucyl-L-tryptophyl-L-alanyl-L-valinyl-glycyl-L-serinyl-L-phenylalanyl-L-methioninamide [Compound L225] |  |  |  |  | reduces competition at the GRP-R | 
